Results from patent US7473524B2, “Mutational profiles in HIV-1 protease correlated with phenotypic drug resistance” (priority 2002, dated 2009).

How the values were obtained:
Assay type in all cases: cell-based
HIV-1/LAI [1] = assay: Antiviral activity in acutely infected MT4 cells, wild-type reference strain; conditions: for EC50: Human immunodeficiency virus 1, wild-type HIV-1/LAI, no selection, MT4 cells, read-out: median(EC50 (μM)); for Fold resistance: wild-type HIV-1/LAI (reference), ratio of EC50 to wild type
Method: (§1) Determination of the antiviral activity of a compound was done as described in Pauwels R. et al. (J Virol Methods 1988; 20(4):309-21). Various concentrations of the test compounds were brought into each well of a flat-bottom microtiter plate. Subsequently, HIV and MT4 cells were added to a final concentration of 200-250 50% cell culture infectious doses (CCID50)/well and 30,000 cells/well, respectively. After 5 days of incubation (37° C., 5% CO2), the cytopathic effect of the replicating virus was determined by the tetrazolium colorimetric MTT method. The dose protecting 50% of the cells from virus cytopathic effect was defined as the EC50, while the dose achieving 90% protection was defined as the EC90.
(§2) The reporter gene assay used MT4-LTR-EGFP cells. Upon infection by HIV-1, the expression of the viral tat product increases transcription from the HIV-1 LTR promoter, leading to high-level expression of the reporter gene product. The assay procedure was similar to the CPE assay except for the end reading of the assay, which was performed on day 3 by measuring the relative fluorescence of treated cultures and comparing this with the relative fluorescence of untreated cultures. The EC50 or the EC90 of a compound was defined as the concentration that inhibited the relative fluorescence by 50% or 90% respectively.
(§3) The in vitro antiviral activity of compound 1 and current reverse transcriptase inhibitors against the selected strains was evaluated in acutely infected MT4 cells. Median EC50 values together with the fold change in resistance (expressed as a ration of EC50) as compared to wild type (FC) are reported.

[2] = test system: HIV-1/LAI-derived strain Y181C, T386A; assay: Antiviral activity in MT4 cells, low MOI strain selected at 0.040 μM, day 15; conditions: Comp. 1 0.040 μM; for Fold resistance: vs wild type; for EC50: Human immunodeficiency virus 1, MT4, 360 h, read-out: median(EC50 (μM))
Method: as §1, §2
(§4) MT4-LTR-EGFP cells were infected at a multiplicity of infection (MOI) of 0.01 to 0.001 CCID50/cell in the presence of inhibitor. The cultures were sub-cultivated and scored microscopically on virus-induced fluorescence and cytopathogenicity every 3-4 days. The cultures were sub-cultivated in the presence of the same compound concentration until signs of virus replication were observed. The escaping virus was further cultivated in the presence of the same inhibitor concentration in order to enrich the population in resistant variants. If full virus breakthrough was observed the supernatant was collected and stored (new virus strain). Afterwards, the same virus was challenged with a higher compound concentration in order to select variants able to grow in the presence of as high as possible inhibitor concentrations. From the new viruses, a virus stock was grown in the absence of inhibitor.
as §3

[3] = test system: HIV-1/LAI-derived strain E006E/K, Y181C, M230I, T386A; assay: Antiviral activity in MT4 cells, low MOI strain selected at 0.200 μM, day 22; conditions: Comp. 1 0.200 μM; for Fold resistance: vs wild type; for EC50: Human immunodeficiency virus 1, MT4, 528 h, read-out: median(EC50 (μM))
Method: as §1, §2, §4, §3

[4] = test system: HIV-1/LAI-derived strain M164M/I, Y181C, D186D/N, M230M/I, T386A; assay: Antiviral activity in MT4 cells, low MOI strain selected at 0.200 μM, day 28; conditions: Comp. 1 0.200 μM; for Fold resistance: vs wild type; for EC50: Human immunodeficiency virus 1, MT4, 672 h, read-out: median(EC50 (μM))
Method: as §1, §2, §4, §3

[5] = test system: HIV-1/LAI-derived strain Y181C, G190E, T386A; assay: Antiviral activity in MT4 cells, low MOI strain selected at 1.000 μM, day 35; conditions: for Fold resistance: Comp. 1 1.000 μM, vs wild type; for EC50: Human immunodeficiency virus 1, MT4, Comp. 1 1.000 μM, read-out: median(EC50 (μM))
Method: as §1, §2, §4, §3

[6] = test system: HIV-1/LAI-derived strain I031L/I, Y181C, G190E, T386A; assay: Antiviral activity in MT4 cells, low MOI strain selected at 5.000 μM, day 35; conditions: for Fold resistance: Comp. 1 5.000 μM, vs wild type; for EC50: Human immunodeficiency virus 1, MT4, Comp. 1 5.000 μM, read-out: median(EC50 (μM))
Method: as §1, §2, §4, §3

[7] = test system: HIV-1/LAI-derived strain I031L/I, F116F/L, Y181C, G190E, T386A; assay: Antiviral activity in MT4 cells, low MOI strain selected at 5.000 μM, day 42; conditions: for Fold resistance: Comp. 1 5.000 μM, vs wild type; for EC50: Human immunodeficiency virus 1, MT4, Comp. 1 5.000 μM, read-out: median(EC50 (μM))
Method: as §1, §2, §4, §3

[8] = test system: HIV-1/LAI-derived strain I031L, A062A/V, Y181C, G190E, T386A; assay: Antiviral activity in MT4 cells, low MOI strain selected at 15.000 μM, day 42; conditions: for Fold resistance: Comp. 1 15.000 μM, vs wild type; for EC50: Human immunodeficiency virus 1, MT4, Comp. 1 15.000 μM, read-out: median(EC50 (μM))
Method: as §1, §2, §4, §3

[9] = test system: HIV-1/LAI-derived strain I031L, A062A/V, L074L/V, Y181C, G190E, T386A; assay: Antiviral activity in MT4 cells, low MOI strain selected at 15.000 μM, day 59; conditions: for Fold resistance: Comp. 1 15.000 μM, vs wild type; for EC50: Human immunodeficiency virus 1, MT4, Comp. 1 15.000 μM, read-out: median(EC50 (μM))
Method: as §1, §2, §4, §3

[10] = test system: HIV-1/LAI-derived strain L100L/I, Y181C, T386A; assay: Antiviral activity in acutely infected MT4 cells, strain selected at high MOI with compound 1 0.200 μM; conditions: for EC50: Human immunodeficiency virus 1, MT4, 600 h, day 25, read-out: median(EC50 (μM)); for Fold resistance: day 25, vs wild type
Method: as §1, §2
(§5) Cells are infected at a high MOI (such as 1-50 CCID50/cell), corresponding to >10^9 viral RNA copies/ml. These experiments have been designed to mimic the quasi-species variability that is observed in HIV infected individuals where 10^9 to 10^10 new viruses are produced daily with a mutation rate of 10^−4 to 10^−5. The infected MT4-LTR-EGFP cells are treated with inhibitors at 40, 200 nM, 1 μM and higher for a maximum of 30 days. The cultures are subcultivated and scored on virus-induced fluorescence and cytopathicity every 3-4 days. If full virus breakthrough (100% CPE) is observed the supernatants was collected and stored (new virus strain). If no full CPE was observed the cells were subcultivated and further grown in the presence of the same concentration compound till full virus breakthrough, with a maximum of 30 days. From the emerging virus populations a virus stock was grown in the absence of compounds and titrated. The sensitivities of the isolated strains to HIV-1 RT inhibitors were determined and the strains were genotyped.
as §3

HIV-1/LAI [11] = assay: In vitro selection of resistant strains, high MOI, MT4-LTR-EGFP cells; conditions: starting strain LAI, 0.200 μM, emerging L100L/I, Y181C, T386A
Method: as §5
(§6) In vitro drug selection experiments starting from wild-type HIV-1/LAI under pressure of compound 1, Efavirenz and Nevirapine have been performed.

HIV-1/LAI [12] = assay: In vitro selection of resistant strains, low MOI, MT4-LTR-EGFP cells; conditions: Y181C, T386A
Text: as §4, §6

Compound	EC50 (HIV-1/LAI [1])	Fold resistance (HIV-1/LAI [1])	Fold resistance [2]	EC50 [2]	Fold resistance [3]	EC50 [3]	Fold resistance [4]	EC50 [4]	Fold resistance [5]	EC50 [5]	Fold resistance [6]	EC50 [6]	Fold resistance [7]	EC50 [7]	Fold resistance [8]	EC50 [8]	Fold resistance [9]	EC50 [9]	EC50 [10]	Fold resistance [10]	further results
Cc1ccnc2c1NC(=O)c1cccnc1N2C1CC1 [Nevirapine]	0.0763 µM	1 fold	>131 fold	> 10 µM	>131 fold	> 10 µM	>131 fold	> 10 µM	>131 fold	> 10 µM	>131 fold	> 10 µM	>131 fold	> 10 µM	>131 fold	> 10 µM	>131 fold	> 10 µM			
Cc1cc(C#N)cc(C)c1Oc1nc(Nc2ccc(C#N)cc2)nc(N)c1Br [Compound 1, Benzonitrile, 4-[[6-amino-5-bromo-2-[(4-cyanophenyl)-amino]-4-pyrimidinyl]oxy]-3,5-dimethyl-]	0.0014 µM	1 fold	24 fold	0.0334 µM	21 fold	0.0298 µM	16 fold	0.0228 µM	155 fold	0.217 µM	282 fold	0.394 µM	90 fold	0.126 µM	441 fold	0.618 µM	>7,143 fold	> 10 µM	0.11 µM	78 fold	Days to breakthrough (HIV-1/LAI [11]): day 25; Days to breakthrough (HIV-1/LAI [12]; 0.040 μM): day 15; Days to breakthrough (HIV-1/LAI [12]; 0.200 μM, E006E/K, M230I): day 22; Days to breakthrough (HIV-1/LAI [12]; 0.200 μM, M164M/I, D186D/N, M230M/I): day 28; Days to breakthrough (HIV-1/LAI [12]; 1.000 μM, G190E): day 35; Days to breakthrough (HIV-1/LAI [12]; 5.000 μM, I031L/I, F116F/L, G190E): day 42; Days to breakthrough (HIV-1/LAI [12]; 5.000 μM, I031L/I, G190E): day 35; Days to breakthrough (HIV-1/LAI [12]; 15.000 μM, I031L, A062A/V, L074L/V, G190E): day 59; Days to breakthrough (HIV-1/LAI [12]; 15.000 μM, I031L, A062A/V, G190E): day 42
O=C1Nc2ccc(Cl)cc2[C@@](C#CC2CC2)(C(F)(F)F)O1 [Efavirenz]	0.001 µM	1 fold	7 fold	0.0067 µM	7 fold	0.0067 µM	7 fold	0.0072 µM	46 fold	0.0465 µM			44 fold	0.0442 µM	209 fold	0.209 µM	>10,000 fold	> 10 µM	0.208 µM	208 fold	
